{"source": "patent US8759537B2", "about": "“3H-imidazo [4, 5-C] pyridine-6-carboxamides as anti-inflammatory agents” (Boehringer Ingelheim International GmbH, priority 2010, dated 2014)", "key": {"[1]": {"target": "T1, mPGES-1 (Homo sapiens (Human), UniProt O14684)", "T1 sequence (O14684 whole entry)": "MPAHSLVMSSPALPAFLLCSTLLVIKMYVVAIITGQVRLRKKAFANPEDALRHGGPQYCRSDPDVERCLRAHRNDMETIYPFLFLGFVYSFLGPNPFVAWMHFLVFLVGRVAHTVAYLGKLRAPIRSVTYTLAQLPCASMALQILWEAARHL", "assay": "mPGES-1 enzyme assay (HTRF detection of PGE2)", "assay_type": "biochemical", "conditions": "recombinant human mPGES-1 microsomes, PGH2 2 μM; read-out: mPGES-1 inhibitory effect in the enzyme assay, IC50"}, "[2]": {"target": "T1, mPGES-1", "assay": "A549 cell-based assay (PGE2 formation, IL-1β stimulated, 50% human serum)", "conditions": "A549 cells, IL-1β 5 ng/ml, read-out: mPGES-1 inhibitory effect in the cell assay, IC50", "outline": "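Human A549 cells (7000 cells/well) in F-12 medium with 50% human serum, with IL-1β stimulation. IC50 from 6-8 point titrations.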"}}}
{"smiles": "Cn1c(Nc2c(Cl)ccc(CNC(=O)C(C)(C)C)c2Cl)nc2cc(C(=O)NC3CCC3)c(OCC(F)F)cc21", "note": "[Example 32]", "values": [{"measurement": "IC50", "setting": "[1]", "value": 3, "unit": "nM"}, {"measurement": "IC50", "setting": "[2]", "value": 1, "unit": "nM"}]}
{"smiles": "Cn1c(Nc2c(Cl)ccc(CNC(=O)OC(C)(C)C)c2Cl)nc2cc(C(=O)N[C@H]3CC[C@H](C(F)(F)F)CC3)c(OCC(F)F)cc21", "note": "[Example 13, N-(trans-4-Trifluoromethyl-cyclohex-1-yl)-2-{2,6-dichloro-3-[(tert-butoxy-carbonylamino)-methyl]-phenylamino}-6-(2,2-difluoroethoxy)-1-methyl-1H-benzimidazole-5-carboxylic acid amide]", "values": [{"measurement": "IC50", "setting": "[1]", "value": 3, "unit": "nM"}, {"measurement": "IC50", "setting": "[2]", "value": 28, "unit": "nM"}]}
